Laboratory results reported in US5126337A, “Thiazetoquinoline-3-carboxylic acid derivative and a pharmaceutical composition comprising the same” (priority 1989, dated 1992).
Values after ≈ are worked out from the molar mass of the structure shown.

Key:
[1] = system: Klebsiella pneumoniae PCI-602; experiment: Antibacterial spectrum, MIC by twofold agar dilution method; type: cell-based; details: PCI602, 10^6 cfu/ml, standard laboratory strain, Gram -, 18 hrs at 37° C, read-out: MIC
Description: Minimum inhibitory concentrations (MIC) of test compounds were determined by the twofold agar dilution method (Chemotherapy, 29(1), 76(1981)). Overnight cultures in Mueller-Hinton broth were suspended by buffered saline gelatin. One loopful of the bacterial suspension (10^6 or 10^8 colony-forming units/ml) was incubated onto the plates containing test compounds. The plates were incubated for 18 hrs at 37° C. The MIC was defined by the lowest concentration of the drug that inhibited visible growth of bacteria.

[2] = system: Enterobacter cloacae HNR 1946; experiment: as above; type: cell-based; details: HNR1946, 10^6 cfu/ml, clinically isolated strain, Gram -, 18 hrs at 37° C
Description: (§1) Overnight cultures in Mueller-Hinton broth were suspended by buffered saline gelatin. One loopful of the bacterial suspension (10^6 or 10^8 colony-forming units/ml) was incubated onto the plates containing test compounds. The plates were incubated for 18 hrs at 37° C. The MIC was defined by the lowest concentration of the drug that inhibited visible growth of bacteria.

[3] = system: Serratia marcescens HNR 1544; experiment: as above; type: cell-based; details: HNR1544, 10^6 cfu/ml, clinically isolated strain, Gram -, 18 hrs at 37° C
Description: as §1

[4] = system: Serratia marcescens IAM 1184; experiment: as above; type: cell-based; details: IAM1184, 10^6 cfu/ml, standard laboratory strain, Gram -, 18 hrs at 37° C
Description: as §1

[5] = system: Staphylococcuss aureus HPC 527; experiment: as above; type: cell-based; details: 10^6 cfu/ml; clinically isolated strain, Gram +; 18 hrs at 37° C
Description: as §1

[6] = system: Pseudomonas aeruginosa IFO 3445; experiment: as above; type: cell-based; details: IFO3445, 10^6 cfu/ml, standard laboratory strain, Gram -, 18 hrs at 37° C
Description: as §1

[7] = system: Enterococcus faecalis HPC 948; experiment: as above; type: cell-based; details: HPC948, 10^6 cfu/ml, clinically isolated strain, Gram +, 18 hrs at 37° C
Description: as §1

[8] = system: Acinetobacter calcoaceticus HNR 939; experiment: as above; type: cell-based; details: HNR939, 10^6 cfu/ml, clinically isolated strain, Gram -, 18 hrs at 37° C
Description: as §1

[9] = system: Acinetobacter calcoaceticus HNR 904; experiment: as above; type: cell-based; details: HNR904, 10^6 cfu/ml, clinically isolated strain, Gram -, 18 hrs at 37° C
Description: as §1

[10] = system: Escherichia coli NIHJ JC-2; experiment: as above; type: cell-based; details: NIHJJC2, 10^6 cfu/ml, standard laboratory strain, Gram -, 18 hrs at 37° C
Description: as §1

[11] = system: Enterobacter cloacae HNR 1939; experiment: as above; type: cell-based; details: HNR1939, 10^6 cfu/ml, clinically isolated strain, Gram -, 18 hrs at 37° C
Description: as §1

[12] = system: Klebsiella pneumoniae HNR 858; experiment: as above; type: cell-based; details: HNR858, 10^6 cfu/ml, clinically isolated strain, Gram -, 18 hrs at 37° C
Description: as §1

[13] = system: Enterococcus faecalis HPC 975; experiment: as above; type: cell-based; details: HPC975, 10^6 cfu/ml, clinically isolated strain, Gram +, 18 hrs at 37° C
Description: as §1

[14] = system: Serratia marcescens HNR 1792; experiment: as above; type: cell-based; details: HNR1792, 10^6 cfu/ml, clinically isolated strain, Gram -, 18 hrs at 37° C
Description: as §1

[15] = system: Staphylococcuss aureus HPC 292; experiment: as above; type: cell-based; details: 10^6 cfu/ml; clinically isolated strain, Gram +; 18 hrs at 37° C; read-out: MIC
Description: as §1

[16] = system: Serratia marcescens HNR 1767; experiment: as above; type: cell-based; details: HNR1767, 10^6 cfu/ml, clinically isolated strain, Gram -, 18 hrs at 37° C
Description: as §1

[17] = system: Enterococcus faecalis HPC 984; experiment: as above; type: cell-based; details: HPC984, 10^6 cfu/ml, clinically isolated strain, Gram +, 18 hrs at 37° C
Description: as §1

[18] = system: Acinetobacter calcoaceticus HNR 916; experiment: as above; type: cell-based; details: HNR916, 10^6 cfu/ml, clinically isolated strain, Gram -, 18 hrs at 37° C
Description: as §1

[19] = system: Pseudomonas aeruginosa HNR 1489; experiment: as above; type: cell-based; details: HNR1489, 10^6 cfu/ml, clinically isolated strain, Gram -, 18 hrs at 37° C
Description: as §1

[20] = system: Klebsiella pneumoniae HNR 869; experiment: as above; type: cell-based; details: HNR869, 10^6 cfu/ml, clinically isolated strain, Gram -, 18 hrs at 37° C
Description: as §1

[21] = system: Klebsiella pneumoniae HNR 828; experiment: as above; type: cell-based; details: HNR828, 10^6 cfu/ml, clinically isolated strain, Gram -, 18 hrs at 37° C
Description: as §1

[22] = system: Pseudomonas aeruginosa HNR 1472; experiment: as above; type: cell-based; details: HNR1472, 10^6 cfu/ml, clinically isolated strain, Gram -, 18 hrs at 37° C
Description: as §1

Enterobacter cloacae 963 = experiment: as above; type: cell-based; details: 10^6 cfu/ml, standard laboratory strain, Gram -, 18 hrs at 37° C
Description: as §1

[23] = system: Pseudomonas aeruginosa HNR 1537; experiment: as above; type: cell-based; details: HNR1537, 10^6 cfu/ml, clinically isolated strain, Gram -, 18 hrs at 37° C
Description: as §1

[24] = system: Staphylococuss aureus FDA 209PJC-1; experiment: as above; type: cell-based; details: 10^6 cfu/ml; standard laboratory strain, Gram +; 18 hrs at 37° C
Description: as §1

Male mice of ddY strain [25] = experiment: Convulsion inducing activity in combination with fenbufen; details: 30 min after fenbufen 100 mg/kg orally
Description: Male mice of ddY strain, 5 weeks old, were used. Fenbufen suspended in 0.5% carboxymethyl cellulose was administered orally at a dose of 100 mg/kg. After thirty minutes, test compounds suspended in 0.5% carboxymethyl cellulose were injected intraperitoneally (i.p.) at a dose of 100 mg/kg or 300 mg/kg.

Male mice of ddY strain [26] = experiment: Acute toxicity (i.v.); type: in vivo; details: 270 mg/kg (i.v.)
Description: Male mice of ddY strain, 4 weeks old, were used. Test compounds were solved in 0.1N--NaOH solution and neutralized with 0.1N--HCl solution. Each compound was administered intravenously (i.v.) at a dose of 270 mg/kg. […]

[27] = system: Enterobacter cloacae HNR 1941; experiment: Antibacterial spectrum, MIC by twofold agar dilution method; type: cell-based; details: HNR1941, 10^6 cfu/ml, clinically isolated strain, Gram -, 18 hrs at 37° C
Description: as §1

[28] = system: Staphylococcuss aureus HPC 308; experiment: as above; type: cell-based; details: 10^6 cfu/ml; clinically isolated strain, Gram +; 18 hrs at 37° C
Description: as §1

For `CC1Sc2c(C(=O)O)c(=O)c3cc(F)c(N4CC[C@H](N)C4)c(F)c3n21` (single isomer, unassigned) [Example 27], the MIC [1] was no more than 0.003 µg/mL, the MIC [2] was 0.2 µg/mL (≈ 0.544 µM) and the MIC [3] was 0.05 µg/mL (≈ 0.136 µM). It also gave an MIC [4] of 0.05 µg/mL (≈ 0.136 µM), an MIC [5] of 0.05 µg/mL (≈ 0.136 µM) and an MIC [6] of 0.1 µg/mL (≈ 0.272 µM). For the same molecule, the MIC [7] was 0.78 µg/mL (≈ 2.12 µM), the MIC [8] was 1.56 µg/mL (≈ 4.25 µM) and the MIC [9] was 25 µg/mL (≈ 68 µM). The MIC [10] was 0.025 µg/mL (≈ 0.068 µM), the MIC [11] was 0.2 µg/mL (≈ 0.544 µM) and the MIC [12] was 0.2 µg/mL (≈ 0.544 µM). The MIC [13] was 6.25 µg/mL (≈ 17 µM), the MIC [14] was 1.56 µg/mL (≈ 4.25 µM) and the MIC [15] was 6.25 µg/mL (≈ 17 µM). For the same molecule, the MIC [16] was 6.25 µg/mL (≈ 17 µM), the MIC [17] was 0.2 µg/mL (≈ 0.544 µM) and the MIC [18] was 0.1 µg/mL (≈ 0.272 µM). It also gave an MIC [19] of 0.1 µg/mL (≈ 0.272 µM), an MIC [20] of 0.78 µg/mL (≈ 2.12 µM) and an MIC [21] of 1.56 µg/mL (≈ 4.25 µM). It also gave an MIC [22] of 3.13 µg/mL (≈ 8.52 µM), an MIC (Enterobacter cloacae 963) of 0.05 µg/mL (≈ 0.136 µM) and an MIC [23] of 6.25 µg/mL (≈ 17 µM). For the same molecule, the MIC [24] was 0.025 µg/mL (≈ 0.068 µM), the “Number of convulsion induced/Number of animals” value (Male mice of ddY strain [25]; 100 mg/kg (i.p.)) was 0/6 and the “Number of convulsion induced/Number of animals” value (Male mice of ddY strain [25]; 300 mg/kg (i.p.)) was 0/6. The “Number of death/Number of animals” value (Male mice of ddY strain [26]) was 4/10.
With `CC1Sc2c(C(=O)O)c(=O)c3cc(F)c(N4CC[C@H](N)C4)c(Cl)c3n21` (single isomer, unassigned) [Example 29] the MIC [2] was 0.2 µg/mL (≈ 0.521 µM), the MIC [3] was 0.05 µg/mL (≈ 0.13 µM) and the MIC [4] was 0.1 µg/mL (≈ 0.261 µM). It also gave an MIC [5] of 0.05 µg/mL (≈ 0.13 µM), an MIC [6] of 0.1 µg/mL (≈ 0.261 µM) and an MIC [7] of 0.78 µg/mL (≈ 2.03 µM). For the same molecule, the MIC [27] was 1.56 µg/mL (≈ 4.06 µM), the MIC [8] was 1.56 µg/mL (≈ 4.06 µM) and the MIC [10] was 0.025 µg/mL (≈ 0.0651 µM). It also gave an MIC [11] of 0.2 µg/mL (≈ 0.521 µM), an MIC [12] of 0.2 µg/mL (≈ 0.521 µM) and an MIC [13] of 6.25 µg/mL (≈ 16.3 µM). It also gave an MIC [14] of 0.78 µg/mL (≈ 2.03 µM), an MIC [15] of 6.25 µg/mL (≈ 16.3 µM) and an MIC [16] of 3.13 µg/mL (≈ 8.15 µM). The MIC [17] was 0.2 µg/mL (≈ 0.521 µM), the MIC [18] was 0.1 µg/mL (≈ 0.261 µM) and the MIC [19] was 0.2 µg/mL (≈ 0.521 µM). It also gave an MIC [20] of 0.39 µg/mL (≈ 1.02 µM), an MIC [28] of 0.78 µg/mL (≈ 2.03 µM) and an MIC [21] of 1.56 µg/mL (≈ 4.06 µM). It also gave an MIC [22] of 3.13 µg/mL (≈ 8.15 µM), an MIC (Enterobacter cloacae 963) of 0.025 µg/mL (≈ 0.0651 µM) and an MIC [23] of 3.13 µg/mL (≈ 8.15 µM). For the same molecule, the MIC [24] was 0.05 µg/mL (≈ 0.13 µM), the “Number of convulsion induced/Number of animals” value (Male mice of ddY strain [25]; 100 mg/kg (i.p.)) was 0/6 and the “Number of convulsion induced/Number of animals” value (Male mice of ddY strain [25]; 300 mg/kg (i.p.)) was 0/6. The “Number of death/Number of animals” value (Male mice of ddY strain [26]) was 3/10.
